Active and inactive are the calls of the source.
How the values were obtained:
[1] = decrease of insulin promoter-GFP reporter – imaging, high-content screening, mouse beta cells (AID 1628); type: functional; conditions: MIN6
[2] = MIN6 cell viability loss – mouse insulinoma, cytotoxicity control, dose response (AID 2122); type: functional;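 also: confirmatory high-throughput counterscreen run to flag cytotoxic compounds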
[3] = test system: Streptococcus sp. 'group A'; assay: Streptococcus pyogenes SK(-)GAS viability under kanamycin – luminescence, BacTiterGlo, confirmation, counter-screen for streptokinase expression inhibitor project, dose response (AID 1900); type: functional, organism-based
[4] = target: T1, Streptokinase A (Streptococcus pyogenes serotype M1, UniProt P10520); assay: viability-normalized secreted streptokinase activity reduction – plasminogen activation absorbance, OD405, dose response (AID 1914); type: functional, Streptococcus pyogenes M1 GAS;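 also: secreted streptokinase activity via plasminogen activation per viability signal from cell pellet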
T1 sequence (P10520 whole entry): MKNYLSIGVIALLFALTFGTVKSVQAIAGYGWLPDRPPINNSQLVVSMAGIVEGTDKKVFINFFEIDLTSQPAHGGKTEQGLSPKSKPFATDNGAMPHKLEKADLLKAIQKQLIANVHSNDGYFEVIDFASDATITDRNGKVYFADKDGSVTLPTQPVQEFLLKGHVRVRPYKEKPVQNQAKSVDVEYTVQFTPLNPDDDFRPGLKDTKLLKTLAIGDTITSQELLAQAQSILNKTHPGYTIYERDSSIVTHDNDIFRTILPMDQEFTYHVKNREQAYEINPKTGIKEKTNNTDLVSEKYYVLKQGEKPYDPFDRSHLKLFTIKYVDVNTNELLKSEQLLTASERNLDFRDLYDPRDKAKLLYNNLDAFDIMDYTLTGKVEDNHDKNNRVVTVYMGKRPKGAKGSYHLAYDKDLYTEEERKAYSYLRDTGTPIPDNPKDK

[5] = target: T2, Calpain-2 catalytic subunit (Sus scrofa, UniProt P43367); assay: m-calpain protease blockers, concentration series – biochemical, fluorogenic peptide substrate, dose response (AID 1420); type: functional
T2 sequence (P43367 whole entry): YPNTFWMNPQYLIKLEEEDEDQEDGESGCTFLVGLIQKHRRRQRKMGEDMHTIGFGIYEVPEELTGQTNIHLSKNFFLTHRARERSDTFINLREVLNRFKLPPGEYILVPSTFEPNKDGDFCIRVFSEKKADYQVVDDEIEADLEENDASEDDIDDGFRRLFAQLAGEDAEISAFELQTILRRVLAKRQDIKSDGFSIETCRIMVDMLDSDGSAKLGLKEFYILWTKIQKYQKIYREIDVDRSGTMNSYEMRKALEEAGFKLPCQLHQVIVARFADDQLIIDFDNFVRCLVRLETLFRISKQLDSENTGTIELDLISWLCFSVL

[6] = test system: Streptococcus; assay: GAS UMAA2166 growth inhibition – luminescence, BacTiterGlo, counter-screen for streptokinase expression inhibitor project, dose response (AID 1915); type: functional, organism-based;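 also: potency for reduction of bacterial viability or growth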
[7] = test system: Escherichia coli; assay: microbe, parasite or virus in culture
[8] = target: T3, SUMO-activating enzyme (Homo sapiens, UniProt Q9UBT2); assay: blockers of UBC9-mediated SUMO conjugation – biochemical, AlphaScreen, SUMOylation inhibitor project, confirmation (AID 2018); type: functional
[9] = target: T3, SUMO-activating enzyme; assay: blockers of SAE1/SAE2–UBC9 SUMO transfer – biochemical, HTRF, uHTS, primary screen (AID 2006); type: protein-complex assay
[10] = target: SUMO E1/E2 (Homo sapiens, UniProt P63279+Q9UBE0+Q9UBT2); assay: SAR analysis of SUMOylation using HTRF in an in-Vitro dose response assay. [Related pubchem assays (depositor defined):AID2006, AID2011, AID2018, AID2069, AID2658]; type: functional
[11] = target: T4, Carboxy-terminal domain RNA polymerase II polypeptide A small phosphatase 1 (Homo sapiens, UniProt Q9GZU7); assay: CTDSP1 inhibitors, concentration-response, biochemical, absorbance readout, ultra-high-throughput screen actives (AID 540297); type: functional
T4 sequence (Q9GZU7 whole entry): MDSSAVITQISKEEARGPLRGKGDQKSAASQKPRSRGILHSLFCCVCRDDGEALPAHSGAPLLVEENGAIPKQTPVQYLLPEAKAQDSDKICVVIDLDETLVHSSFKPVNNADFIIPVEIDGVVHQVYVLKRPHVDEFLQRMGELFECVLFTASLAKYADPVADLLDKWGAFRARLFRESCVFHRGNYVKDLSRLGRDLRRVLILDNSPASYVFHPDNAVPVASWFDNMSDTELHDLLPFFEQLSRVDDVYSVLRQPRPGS

[12] = test system: HEK293; assay: cells; conditions: Homo sapiens
[13] = test system: HEK293; assay: cells; conditions: Homo sapiens; remark: listed apart in the source
[14] = target: T5, Replicative DNA helicase DnaB (Mycobacterium tuberculosis, UniProt P9WMR3); assay: DnaB intein splicing inhibitors, dose response, biochemical, cell-free fluorescence (AID 449749); type: functional
T5 sequence (P9WMR3 whole entry): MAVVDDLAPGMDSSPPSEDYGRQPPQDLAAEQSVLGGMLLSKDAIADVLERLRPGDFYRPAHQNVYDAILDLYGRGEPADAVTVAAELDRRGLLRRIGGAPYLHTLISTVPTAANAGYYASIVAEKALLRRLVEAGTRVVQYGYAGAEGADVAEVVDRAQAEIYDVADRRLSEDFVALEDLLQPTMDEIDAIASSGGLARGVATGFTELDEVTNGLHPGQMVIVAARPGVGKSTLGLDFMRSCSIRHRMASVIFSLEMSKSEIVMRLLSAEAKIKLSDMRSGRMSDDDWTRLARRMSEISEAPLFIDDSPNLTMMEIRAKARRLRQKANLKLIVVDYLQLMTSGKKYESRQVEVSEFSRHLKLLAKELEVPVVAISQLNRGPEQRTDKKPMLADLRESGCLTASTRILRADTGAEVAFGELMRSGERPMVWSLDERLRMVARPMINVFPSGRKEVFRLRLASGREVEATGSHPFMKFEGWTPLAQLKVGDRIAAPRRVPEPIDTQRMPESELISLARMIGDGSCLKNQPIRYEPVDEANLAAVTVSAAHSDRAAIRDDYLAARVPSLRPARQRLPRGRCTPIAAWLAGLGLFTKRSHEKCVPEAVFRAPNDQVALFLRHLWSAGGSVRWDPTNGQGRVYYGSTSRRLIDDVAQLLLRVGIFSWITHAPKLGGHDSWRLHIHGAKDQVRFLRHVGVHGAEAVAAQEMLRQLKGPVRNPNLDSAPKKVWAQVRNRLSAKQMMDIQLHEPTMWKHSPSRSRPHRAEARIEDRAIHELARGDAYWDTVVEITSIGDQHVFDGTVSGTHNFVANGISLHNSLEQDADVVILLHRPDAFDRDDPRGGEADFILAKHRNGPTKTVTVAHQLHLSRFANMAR

[15] = target: T6, Protein RecA (Mycobacterium tuberculosis, UniProt P9WHJ3); assay: Fluorescence Cell-Free Homogeneous Dose Retest to Identify Inhibitors of RecA-Intein Splicing Activity. [Related pubchem assays (depositor defined):AID2097, AID2223, AID489010, AID492950]; type: functional
T6 sequence (P9WHJ3 whole entry): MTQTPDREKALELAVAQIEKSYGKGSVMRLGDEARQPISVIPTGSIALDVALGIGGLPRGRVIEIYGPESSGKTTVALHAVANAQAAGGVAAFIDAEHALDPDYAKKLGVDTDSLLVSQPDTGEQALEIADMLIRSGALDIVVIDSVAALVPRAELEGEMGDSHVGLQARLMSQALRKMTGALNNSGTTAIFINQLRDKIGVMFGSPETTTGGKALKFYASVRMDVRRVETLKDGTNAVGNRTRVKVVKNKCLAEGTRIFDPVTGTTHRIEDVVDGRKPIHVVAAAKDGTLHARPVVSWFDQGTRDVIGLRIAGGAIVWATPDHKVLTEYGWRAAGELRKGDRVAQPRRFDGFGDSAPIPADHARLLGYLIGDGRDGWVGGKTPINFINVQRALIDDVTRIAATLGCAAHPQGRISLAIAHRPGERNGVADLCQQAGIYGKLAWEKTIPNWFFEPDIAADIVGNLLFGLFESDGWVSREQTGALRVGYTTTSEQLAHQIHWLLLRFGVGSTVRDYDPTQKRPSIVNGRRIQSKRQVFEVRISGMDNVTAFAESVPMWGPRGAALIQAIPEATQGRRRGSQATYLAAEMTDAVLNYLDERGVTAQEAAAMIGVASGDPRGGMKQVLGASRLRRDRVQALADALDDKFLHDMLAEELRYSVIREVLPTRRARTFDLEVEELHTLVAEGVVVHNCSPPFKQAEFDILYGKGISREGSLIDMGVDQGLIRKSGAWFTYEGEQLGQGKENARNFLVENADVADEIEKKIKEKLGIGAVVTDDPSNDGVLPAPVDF

[16] = target: Cytochrome P450 2D6 (Homo sapiens, UniProt P10635);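 also: CYP2D6 member of a cytochrome P450 panel assay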
[17] = target: Cytochrome P450 3A4 (Homo sapiens, UniProt P08684);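 also: CYP3A4 tested as one member of a cytochrome P450 panel screen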
[18] = target: T7, Voltage-gated N-type calcium channel alpha-1B subunit/Amyloid beta A4 precursor protein-binding family A member 1 (Homo sapiens, UniProt Q00975+Q02410); assay: disruptors of Mint-PDZ/N-type channel peptide interaction – biochemical, HTRF, set 2, SAR follow-up (AID 434980); type: functional
[19] = target: T7, Voltage-gated N-type calcium channel alpha-1B subunit/Amyloid beta A4 precursor protein-binding family A member 1; assay: disruptors of Mint-PDZ/N-type channel peptide interaction – biochemical, HTRF, SAR follow-up (AID 2489); type: functional
[20] = target: Glucose-6-phosphate 1-dehydrogenase (Homo sapiens, UniProt P11413); assay: inhibition of Homo sapiens G6PD, dose series – biochemical, fluorescence, selectivity assay for P. falciparum G6PD inhibitor project, dose response (AID 504792); type: functional

T3 sequence (Q9UBE0 whole entry): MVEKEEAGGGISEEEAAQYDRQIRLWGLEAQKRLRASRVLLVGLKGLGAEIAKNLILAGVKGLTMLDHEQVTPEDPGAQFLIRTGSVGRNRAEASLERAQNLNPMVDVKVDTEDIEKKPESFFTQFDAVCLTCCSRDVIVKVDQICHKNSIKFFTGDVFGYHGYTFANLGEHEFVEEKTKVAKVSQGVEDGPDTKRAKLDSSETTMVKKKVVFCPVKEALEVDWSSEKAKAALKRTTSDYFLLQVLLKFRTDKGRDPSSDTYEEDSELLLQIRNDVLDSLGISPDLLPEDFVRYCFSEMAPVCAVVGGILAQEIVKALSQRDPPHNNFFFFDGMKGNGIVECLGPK
T3 sequence (Q9UBT2 whole entry): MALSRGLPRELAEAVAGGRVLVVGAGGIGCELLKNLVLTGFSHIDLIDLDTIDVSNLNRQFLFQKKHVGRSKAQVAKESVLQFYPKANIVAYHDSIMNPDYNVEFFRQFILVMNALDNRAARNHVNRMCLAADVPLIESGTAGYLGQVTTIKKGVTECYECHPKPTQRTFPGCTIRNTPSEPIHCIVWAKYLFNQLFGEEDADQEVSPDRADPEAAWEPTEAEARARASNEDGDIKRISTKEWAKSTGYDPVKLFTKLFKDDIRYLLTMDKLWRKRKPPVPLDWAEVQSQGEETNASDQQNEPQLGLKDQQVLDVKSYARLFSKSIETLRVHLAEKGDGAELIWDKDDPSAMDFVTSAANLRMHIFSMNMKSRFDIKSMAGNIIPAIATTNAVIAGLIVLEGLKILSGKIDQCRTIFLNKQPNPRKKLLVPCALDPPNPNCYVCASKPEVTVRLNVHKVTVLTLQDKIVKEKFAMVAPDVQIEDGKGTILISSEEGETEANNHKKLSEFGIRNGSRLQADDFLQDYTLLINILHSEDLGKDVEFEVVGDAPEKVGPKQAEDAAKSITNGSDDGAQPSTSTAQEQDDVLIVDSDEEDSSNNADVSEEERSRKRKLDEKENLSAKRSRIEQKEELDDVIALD
SUMO E1/E2, sequence (Q9UBE0 whole entry, the tested form may be a part): as the sequence (Q9UBE0 whole entry) above
SUMO E1/E2, sequence (Q9UBT2 whole entry, the tested form may be a part): as the sequence (Q9UBT2 whole entry) above
SUMO E1/E2, sequence (P63279 whole entry, the tested form may be a part): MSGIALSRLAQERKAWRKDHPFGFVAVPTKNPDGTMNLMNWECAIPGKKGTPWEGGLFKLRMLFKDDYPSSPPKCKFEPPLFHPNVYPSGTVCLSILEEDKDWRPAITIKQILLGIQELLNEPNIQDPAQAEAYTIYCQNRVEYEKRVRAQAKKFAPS
Cytochrome P450 2D6, sequence (P10635 whole entry): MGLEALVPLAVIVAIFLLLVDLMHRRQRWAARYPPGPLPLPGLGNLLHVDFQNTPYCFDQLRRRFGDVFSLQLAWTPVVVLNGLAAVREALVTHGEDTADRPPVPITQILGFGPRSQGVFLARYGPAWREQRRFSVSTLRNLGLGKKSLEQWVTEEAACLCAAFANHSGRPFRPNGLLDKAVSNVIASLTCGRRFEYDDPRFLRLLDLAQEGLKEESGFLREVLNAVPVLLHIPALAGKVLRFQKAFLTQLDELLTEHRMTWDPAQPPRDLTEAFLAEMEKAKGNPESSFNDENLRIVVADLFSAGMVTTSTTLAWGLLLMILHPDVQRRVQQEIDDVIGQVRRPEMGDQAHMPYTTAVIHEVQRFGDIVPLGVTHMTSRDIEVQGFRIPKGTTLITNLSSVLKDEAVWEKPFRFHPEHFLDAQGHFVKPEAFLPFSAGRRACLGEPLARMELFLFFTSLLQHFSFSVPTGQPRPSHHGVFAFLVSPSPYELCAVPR
T7 sequence (Q00975 whole entry): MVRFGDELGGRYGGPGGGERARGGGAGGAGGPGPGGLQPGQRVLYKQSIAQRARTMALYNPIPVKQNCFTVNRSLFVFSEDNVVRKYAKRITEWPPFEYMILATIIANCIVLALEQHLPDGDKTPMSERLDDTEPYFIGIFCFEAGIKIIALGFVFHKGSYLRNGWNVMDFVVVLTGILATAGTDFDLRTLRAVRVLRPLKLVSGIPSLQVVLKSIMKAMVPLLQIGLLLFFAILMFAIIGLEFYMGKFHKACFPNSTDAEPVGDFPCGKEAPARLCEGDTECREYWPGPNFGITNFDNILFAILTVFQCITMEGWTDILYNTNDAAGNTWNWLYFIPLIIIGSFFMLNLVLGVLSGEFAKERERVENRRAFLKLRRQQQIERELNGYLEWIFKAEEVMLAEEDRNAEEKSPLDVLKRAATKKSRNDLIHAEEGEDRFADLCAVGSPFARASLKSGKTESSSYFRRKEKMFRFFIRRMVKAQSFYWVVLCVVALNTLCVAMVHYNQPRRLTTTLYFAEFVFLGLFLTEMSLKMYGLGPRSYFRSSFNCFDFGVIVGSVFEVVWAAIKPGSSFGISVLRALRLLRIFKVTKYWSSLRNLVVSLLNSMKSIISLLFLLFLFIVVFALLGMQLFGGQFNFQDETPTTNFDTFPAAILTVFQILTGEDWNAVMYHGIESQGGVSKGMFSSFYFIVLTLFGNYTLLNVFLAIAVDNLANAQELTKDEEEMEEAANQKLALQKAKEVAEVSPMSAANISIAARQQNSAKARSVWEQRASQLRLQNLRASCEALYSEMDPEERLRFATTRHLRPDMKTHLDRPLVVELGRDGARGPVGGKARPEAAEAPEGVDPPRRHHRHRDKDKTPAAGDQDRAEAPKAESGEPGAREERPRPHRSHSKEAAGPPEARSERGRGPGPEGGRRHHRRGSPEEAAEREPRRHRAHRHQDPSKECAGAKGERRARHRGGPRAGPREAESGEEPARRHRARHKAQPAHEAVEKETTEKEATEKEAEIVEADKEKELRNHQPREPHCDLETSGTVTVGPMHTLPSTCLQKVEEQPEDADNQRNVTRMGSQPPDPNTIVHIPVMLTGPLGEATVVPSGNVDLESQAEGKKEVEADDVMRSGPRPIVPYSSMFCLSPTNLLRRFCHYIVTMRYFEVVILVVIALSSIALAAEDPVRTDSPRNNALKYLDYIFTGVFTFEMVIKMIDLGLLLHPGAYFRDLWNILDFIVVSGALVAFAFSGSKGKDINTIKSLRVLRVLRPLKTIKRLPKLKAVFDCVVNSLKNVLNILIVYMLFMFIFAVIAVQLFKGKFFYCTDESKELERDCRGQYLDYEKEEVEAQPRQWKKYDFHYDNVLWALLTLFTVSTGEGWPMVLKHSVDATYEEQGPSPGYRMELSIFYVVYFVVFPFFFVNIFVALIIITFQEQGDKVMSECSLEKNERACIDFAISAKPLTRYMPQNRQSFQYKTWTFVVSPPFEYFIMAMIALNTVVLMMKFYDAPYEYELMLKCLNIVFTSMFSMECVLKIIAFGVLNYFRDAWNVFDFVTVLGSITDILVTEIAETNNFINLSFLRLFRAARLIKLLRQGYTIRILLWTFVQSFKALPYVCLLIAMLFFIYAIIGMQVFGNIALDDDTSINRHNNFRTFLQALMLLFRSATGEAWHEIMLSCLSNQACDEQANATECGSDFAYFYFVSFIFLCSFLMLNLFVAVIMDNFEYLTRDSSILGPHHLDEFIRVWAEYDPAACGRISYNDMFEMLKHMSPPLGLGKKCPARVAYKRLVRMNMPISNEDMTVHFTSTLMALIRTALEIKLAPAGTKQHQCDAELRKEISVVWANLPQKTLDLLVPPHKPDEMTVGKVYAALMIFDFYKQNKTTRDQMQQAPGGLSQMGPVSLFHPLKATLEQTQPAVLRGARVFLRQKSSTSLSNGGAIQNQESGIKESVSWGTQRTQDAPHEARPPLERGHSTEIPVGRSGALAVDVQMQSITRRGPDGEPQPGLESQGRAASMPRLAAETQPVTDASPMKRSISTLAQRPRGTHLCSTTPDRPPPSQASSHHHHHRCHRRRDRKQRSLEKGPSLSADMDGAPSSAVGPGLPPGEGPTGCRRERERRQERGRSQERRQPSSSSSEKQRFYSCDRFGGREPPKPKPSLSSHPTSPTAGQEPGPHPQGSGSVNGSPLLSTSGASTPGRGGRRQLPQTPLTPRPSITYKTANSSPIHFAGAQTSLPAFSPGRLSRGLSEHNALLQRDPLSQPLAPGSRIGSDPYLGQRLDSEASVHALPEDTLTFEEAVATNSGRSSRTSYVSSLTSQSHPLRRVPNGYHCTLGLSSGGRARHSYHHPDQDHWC
T7 sequence (Q02410 whole entry): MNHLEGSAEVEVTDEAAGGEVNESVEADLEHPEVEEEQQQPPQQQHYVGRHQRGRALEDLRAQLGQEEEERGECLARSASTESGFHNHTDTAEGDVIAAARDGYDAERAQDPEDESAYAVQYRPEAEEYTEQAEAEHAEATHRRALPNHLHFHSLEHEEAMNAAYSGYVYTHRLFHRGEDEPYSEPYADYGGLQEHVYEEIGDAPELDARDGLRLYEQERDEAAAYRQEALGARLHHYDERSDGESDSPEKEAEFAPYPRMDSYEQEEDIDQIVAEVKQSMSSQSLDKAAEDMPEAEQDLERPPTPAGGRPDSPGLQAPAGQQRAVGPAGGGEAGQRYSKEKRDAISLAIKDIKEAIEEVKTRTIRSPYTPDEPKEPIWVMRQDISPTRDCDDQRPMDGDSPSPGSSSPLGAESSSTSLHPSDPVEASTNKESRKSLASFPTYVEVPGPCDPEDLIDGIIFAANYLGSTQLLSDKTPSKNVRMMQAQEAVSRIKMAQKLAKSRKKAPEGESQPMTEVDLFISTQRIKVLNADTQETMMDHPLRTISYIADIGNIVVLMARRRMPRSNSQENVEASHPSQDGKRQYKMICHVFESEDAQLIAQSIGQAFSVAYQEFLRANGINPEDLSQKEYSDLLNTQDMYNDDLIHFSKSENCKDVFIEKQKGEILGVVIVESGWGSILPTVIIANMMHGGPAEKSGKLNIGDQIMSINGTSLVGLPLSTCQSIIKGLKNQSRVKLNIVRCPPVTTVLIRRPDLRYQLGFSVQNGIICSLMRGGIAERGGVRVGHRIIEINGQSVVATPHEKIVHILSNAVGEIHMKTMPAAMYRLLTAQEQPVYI

O=C(CN1CCN(C(c2ccccc2)c2ccccc2)CC1)NC(=O)NCc1ccco1
IC50 [1]: 0.468 µM (active) | IC50 [2]: 0.439 µM (active)

CCOC(=O)c1cnc(-n2nc(C)cc2C)nc1Nc1ccc(C)cc1
IC50 [1]: 2.56 µM (active) | EC50 [3]: 3.44 µM (active) | IC50 [2]: 7.89 µM (active) | EC50 [4]: > 150 µM (not active) | IC50 [5]: 5.74 µM (not active) | EC50 [6]: > 150 µM (not active)

O=C(NCc1ccccc1)c1ccc(Br)o1
AC50 [7]: 42.9 µM (active)

COc1ccccc1NC(=O)Cn1c(O)c(N=NC(=O)c2ccccc2O)c2ccccc21
IC50 [8]: 6.52 µM (active) | IC50 [9]: 23.8 µM (active) | IC50 [10]: 71.1 µM (active) | IC50 [11]: 2.74 µM (active)

Cc1ccc(OCCn2cnc3c(N)ncnc32)cc1
EC50 [12]: > 59.6 µM (inactive) | EC50 [13]: > 59.6 µM (inactive)

O=C(CSc1ncnc2c1nnn2Cc1ccccc1F)NCC1CCCO1 (configuration not stated)
AC50 [14]: 15 µM (active) | EC50 [15]: 16.5 µM (active) | AC50 [7]: 58.3 µM (active)

Cc1sc2ccccc2[n+]1CCC(=O)O
AC50 [16]: inconclusive

C[C@@H]1/C=C\CC(=O)OC[C@H]2O[C@@H](C=C[C@@H]2O)[C@H](C)/C=C\CC(=O)OC1
AC50 [17]: 5.01 µM (inconclusive) | AC50 [16]: inconclusive

COC(=O)c1ccc(CSc2ncnc3c2sc2nc(N4CCOCC4)c4c(c23)CCCC4)o1
EC50 [12]: > 59.7 µM (inactive) | EC50 [13]: > 59.7 µM (inactive)

O=C(COC(=O)c1cc(-c2ccco2)nc2ccccc12)NCc1ccc(F)cc1
IC50 [10]: 4.64 µM (active) | IC50 [18]: 11.1 µM (active) | IC50 [19]: 30.4 µM (active)

Cc1cc(O)nc(N/N=C/c2c(C)nn(-c3ccccc3)c2Cl)n1
IC50 [20]: > 80 µM (inactive)

— ChEMBL document CHEMBL1201862, “PubChem BioAssay data set” (2004)
